Test results published in BindingDB's records for doi:10.1124/jpet.300.2.478 (Abbott Laboratories, 2002).

Tests used:
[1] = target: T1, Alpha-1D adrenergic receptor (Homo sapiens, UniProt P25100)
T1 sequence (P25100 whole entry): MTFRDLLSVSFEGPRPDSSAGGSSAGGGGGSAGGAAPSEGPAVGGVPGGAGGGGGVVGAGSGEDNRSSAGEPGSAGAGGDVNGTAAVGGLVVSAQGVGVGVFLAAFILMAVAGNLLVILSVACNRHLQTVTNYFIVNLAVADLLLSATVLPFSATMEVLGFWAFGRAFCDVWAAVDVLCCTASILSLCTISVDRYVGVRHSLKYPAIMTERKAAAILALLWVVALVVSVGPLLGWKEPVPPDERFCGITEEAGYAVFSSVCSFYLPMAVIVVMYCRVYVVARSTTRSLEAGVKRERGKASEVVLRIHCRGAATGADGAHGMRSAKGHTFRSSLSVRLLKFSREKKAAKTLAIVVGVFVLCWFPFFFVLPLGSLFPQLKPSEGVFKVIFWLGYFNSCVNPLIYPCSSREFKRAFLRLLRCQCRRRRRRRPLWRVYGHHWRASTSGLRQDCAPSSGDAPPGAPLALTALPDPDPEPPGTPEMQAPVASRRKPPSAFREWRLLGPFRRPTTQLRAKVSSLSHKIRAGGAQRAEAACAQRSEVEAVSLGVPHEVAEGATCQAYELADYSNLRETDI

[2] = target: T2, Alpha-1B adrenergic receptor (Homo sapiens, UniProt P35368)
T2 sequence (P35368 whole entry): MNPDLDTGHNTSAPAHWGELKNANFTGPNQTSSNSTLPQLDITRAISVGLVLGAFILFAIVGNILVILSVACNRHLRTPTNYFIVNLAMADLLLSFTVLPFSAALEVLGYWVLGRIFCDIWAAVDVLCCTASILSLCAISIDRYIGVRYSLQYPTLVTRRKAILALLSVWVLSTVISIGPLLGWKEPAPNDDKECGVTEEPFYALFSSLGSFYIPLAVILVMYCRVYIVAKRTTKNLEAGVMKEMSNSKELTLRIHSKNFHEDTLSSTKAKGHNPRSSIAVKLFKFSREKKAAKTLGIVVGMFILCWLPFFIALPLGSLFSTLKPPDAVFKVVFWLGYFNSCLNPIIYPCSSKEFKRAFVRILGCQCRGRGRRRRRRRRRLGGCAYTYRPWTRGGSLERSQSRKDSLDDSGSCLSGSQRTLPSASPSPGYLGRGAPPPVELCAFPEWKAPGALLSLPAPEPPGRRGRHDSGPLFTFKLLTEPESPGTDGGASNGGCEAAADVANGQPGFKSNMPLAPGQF

Row | Structure (SMILES) | Ki [1] [nM] | Ki [2] [nM]
1 | COc1cc2nc(N3CCN(C(=O)C4CCCO4)CC3)nc(N)c2cc1OC (stereo not given) [6,7-dimethoxy-2-[4-(tetrahydrofuran-2-ylcarbonyl)piperazin-1-yl]quinazolin-4-amine] | 0.66 | 
2 | COc1cccc2c1C1CN(CCCCn3c(=O)[nH]c4c(sc5ncc(-c6ccccc6)nc54)c3=O)CC1CO2 (stereo not given) [CAS_172307] | 0.91 | 25.1
3 | CCOc1ccccc1OCCN[C@H](C)Cc1ccc(OC)c(S(N)(=O)=O)c1 [5-[(2R)-2-{[2-(2-ethoxyphenoxy)ethyl]amino}propyl]-2-methoxybenzenesulfonamide] | 0.056 | 0.6
